Assay results from ChEMBL document CHEMBL1201862, “PubChem BioAssay data set” (2004).
Counter-ions that a name gives are not always drawn.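 Protocol summary: plate cells (96-well), add compound at 5 concentrations, incubate 48 h, interpolate endpoints linearly. Here, GI50 denotes the concentration required for 50% inhibition of growth.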 Activity calls are given as the source filed them. Rule as the data show it: active = GI50 up to about 1.1 µM and inactive = higher.

Experiments:
Experiment in all cases: NCI-60 cell line screen, 48 h
A498 = test system: A498
ACHN = test system: ACHN
DLD-1 = test system: DLD-1
DMS-114 = test system: DMS-114
DMS-273 = test system: DMS-273
EKVX = test system: EKVX
HCT-116 = test system: HCT-116
HT-29 = test system: HT-29
LXFL 529 = test system: LXFL 529
M19-MEL = test system: M19-MEL
NCI-H460 = test system: NCI-H460
SK-MEL-28 = test system: SK-MEL-28
SK-MEL-2 = test system: SK-MEL-2
SK-OV-3 = test system: SK-OV-3
OVCAR-4 = test system: OVCAR-4
SK-MEL-5 = test system: SK-MEL-5
SN12C = test system: SN12C
MDA-MB-435 = test system: MDA-MB-435
MDA-N = test system: MDA-N
NCI/ADR-RES = test system: NCI/ADR-RES

Compound	GI50 (A498)	GI50 (ACHN)	GI50 (DLD-1)	GI50 (DMS-114)	GI50 (DMS-273)	GI50 (EKVX)	GI50 (HCT-116)	GI50 (HT-29)	GI50 (LXFL 529)	GI50 (M19-MEL)	GI50 (NCI-H460)	GI50 (SK-MEL-28)	GI50 (SK-MEL-2)	GI50 (SK-OV-3)	GI50 (OVCAR-4)	GI50 (SK-MEL-5)	GI50 (SN12C)	GI50 (MDA-MB-435)	GI50 (MDA-N)	GI50 (NCI/ADR-RES)
CC(=O)N[C@@H]1C(O)CN2C(=O)C(=O)O[C@H](C(O)CO)[C@@H]12 (some centres not stated)	> 100 µM (inactive)	> 100 µM (inactive)	> 100 µM (inactive)	> 100 µM (inactive)	> 100 µM (inactive)	> 100 µM (inactive)	> 100 µM (inactive)	> 100 µM (inactive)	> 100 µM (inactive)	> 100 µM (inactive)	> 100 µM (inactive)	> 100 µM (inactive)	> 100 µM (inactive)	> 100 µM (inactive)	–	–	–	–	–	–
Cc1ccc2c(c1)C1C(CO2)C(c2ccccc2)=NN1c1ccccc1 (configuration not stated)	> 100 µM (inactive)	> 100 µM (inactive)	> 100 µM (inactive)	> 100 µM (inactive)	> 100 µM (inactive)	> 100 µM (inactive)	> 100 µM (inactive)	69.5 µM (inactive)	> 100 µM (inactive)	> 100 µM (inactive)	> 100 µM (inactive)	> 100 µM (inactive)	> 100 µM (inactive)	> 100 µM (inactive)	–	–	–	–	–	–
O=P(c1ccccc1)(c1ccccc1)C1CC=C(c2ccccc2)C2(CCCC2)C1 (configuration not stated)	74.8 µM (inactive)	–	48.9 µM (inactive)	34.4 µM (inactive)	> 100 µM (inactive)	> 100 µM (inactive)	45 µM (inactive)	59.2 µM (inactive)	> 100 µM (inactive)	43.7 µM (inactive)	59.2 µM (inactive)	40.1 µM (inactive)	46.7 µM (inactive)	> 100 µM (inactive)	29.6 µM (inactive)	71.8 µM (inactive)	59.7 µM (inactive)	–	–	–
CCOC(=O)C1S/C(=N\c2ccc(C)c(C)c2)N=C1C (configuration not stated)	> 100 µM (inactive)	> 100 µM (inactive)	> 100 µM (inactive)	> 100 µM (inactive)	> 100 µM (inactive)	> 100 µM (inactive)	–	> 100 µM (inactive)	> 100 µM (inactive)	> 100 µM (inactive)	> 100 µM (inactive)	> 100 µM (inactive)	> 100 µM (inactive)	> 100 µM (inactive)	> 100 µM (inactive)	52.7 µM (inactive)	> 100 µM (inactive)	–	–	–
Cc1cc(Cl)ccc1NC(=O)CCCC(=O)C(C(=O)c1ccccc1)c1ccccc1 (configuration not stated)	> 100 µM (inactive)	> 100 µM (inactive)	> 100 µM (inactive)	> 100 µM (inactive)	> 100 µM (inactive)	–	–	> 100 µM (inactive)	> 100 µM (inactive)	> 100 µM (inactive)	> 100 µM (inactive)	–	> 100 µM (inactive)	> 100 µM (inactive)	> 100 µM (inactive)	–	> 100 µM (inactive)	–	–	–
CC1CCCP(=O)(c2ccccc2)CC1 (configuration not stated)	> 100 µM (inactive)	> 100 µM (inactive)	> 100 µM (inactive)	> 100 µM (inactive)	> 100 µM (inactive)	> 100 µM (inactive)	–	> 100 µM (inactive)	> 100 µM (inactive)	> 100 µM (inactive)	> 100 µM (inactive)	> 100 µM (inactive)	> 100 µM (inactive)	> 100 µM (inactive)	> 100 µM (inactive)	> 100 µM (inactive)	> 100 µM (inactive)	–	–	–
COc1ccc(S(=O)(=O)c2ccccc2[N+](=O)[O-])cc1	> 100 µM (inactive)	–	> 100 µM (inactive)	57.7 µM (inactive)	> 100 µM (inactive)	> 100 µM (inactive)	> 100 µM (inactive)	> 100 µM (inactive)	92 µM (inactive)	77.8 µM (inactive)	> 100 µM (inactive)	53.5 µM (inactive)	> 100 µM (inactive)	> 100 µM (inactive)	> 100 µM (inactive)	65 µM (inactive)	86.1 µM (inactive)	–	–	–
O=C1c2c(O)cccc2-c2nn(CCNCCO)c3ccc(NCCNCCO)c1c23 [LOSOXANTRONE HYDROCHLORIDE]	< 0.0113 µM (active)	0.0337 µM (active)	1.24 µM (inactive)	< 0.0104 µM (active)	0.0288 µM (active)	0.867 µM (active)	0.043 µM (active)	0.303 µM (active)	0.107 µM (active)	0.16 µM (active)	< 0.01 µM (active)	0.447 µM (active)	0.436 µM (active)	0.0735 µM (active)	0.605 µM (active)	0.0955 µM (active)	0.0182 µM (active)	0.53 µM (active)	0.48 µM (active)	8.28 µM (inactive)
CCOC(=O)Nc1ccc(S(=O)(=O)OC)cc1.CCOC(=O)Nc1ccc(S(=O)(=O)OC)cc1.NC(=O)NCCO	> 50 µM (inactive)	> 50 µM (inactive)	7.08 µM (inactive)	22.1 µM (inactive)	29.2 µM (inactive)	> 50 µM (inactive)	21.3 µM (inactive)	31.8 µM (inactive)	29.4 µM (inactive)	29.9 µM (inactive)	22.1 µM (inactive)	> 50 µM (inactive)	> 50 µM (inactive)	> 50 µM (inactive)	41.9 µM (inactive)	> 50 µM (inactive)	> 50 µM (inactive)	–	–	–
Cc1ccc(NC(=O)/C(CC(=O)c2c[n+]([O-])c3ccccc3[n+]2[O-])=N\NC(=O)C[n+]2ccccc2)cc1	> 100 µM (inactive)	> 100 µM (inactive)	> 100 µM (inactive)	> 100 µM (inactive)	> 100 µM (inactive)	> 100 µM (inactive)	> 100 µM (inactive)	> 100 µM (inactive)	> 100 µM (inactive)	> 100 µM (inactive)	> 100 µM (inactive)	> 100 µM (inactive)	> 100 µM (inactive)	> 100 µM (inactive)	64.1 µM (inactive)	> 100 µM (inactive)	> 100 µM (inactive)	–	–	–
CCOC(=O)/C(C#N)=C(N)/C(=N\Nc1cccc(C(F)(F)F)c1)C(=O)OCC	> 100 µM (inactive)	> 100 µM (inactive)	> 100 µM (inactive)	> 100 µM (inactive)	> 100 µM (inactive)	> 100 µM (inactive)	> 100 µM (inactive)	> 100 µM (inactive)	> 100 µM (inactive)	> 100 µM (inactive)	–	> 100 µM (inactive)	> 100 µM (inactive)	> 100 µM (inactive)	> 100 µM (inactive)	> 100 µM (inactive)	> 100 µM (inactive)	–	–	–
COC(=O)C1CC2(c3ccccc3)C(=O)c3ccccc3N2O1 (configuration not stated)	> 100 µM (inactive)	49.2 µM (inactive)	78.7 µM (inactive)	46.6 µM (inactive)	31.6 µM (inactive)	> 100 µM (inactive)	46.9 µM (inactive)	33.3 µM (inactive)	50 µM (inactive)	64.4 µM (inactive)	47.3 µM (inactive)	91.8 µM (inactive)	39.3 µM (inactive)	> 100 µM (inactive)	> 100 µM (inactive)	74.8 µM (inactive)	43 µM (inactive)	–	–	–
